From US9850283B2, “Macrocyclic inhibitors of the PD-1/PD-L1 and CD80(B7-1)/PD-L1 protein/protein interactions” (BRISTOL-MYERS SQUIBB COMPANY, priority 2013, dated 2017)
Starred links: 1 amine or outer side, 2 acyl side, 3 side chain; linkers in the order of their positions; H or OH if unused. Positions of bridges follow the written chain, without caps; N, C: chain ends. Non-standard residues stand in square brackets, D forms with d. Residues, ends and D or L forms follow the SMILES beside them. Phe(3,4,5-F3) = N[C@@H](Cc1cc(F)c(F)c(F)c1)C(=O)O; X1 = C[C@@H]1C[C@H](C(=O)[*:2])N([*:1])C1; d(cisHyp) = O=C(O)[C@H]1C[C@@H](O)CN1; dDopa = N[C@H](Cc1ccc(O)c(O)c1)C(=O)O; NMeF = CN[C@@H](Cc1ccccc1)C(=O)O; dHyp = O=C(O)[C@H]1C[C@H](O)CN1; dNMeE = CN[C@H](CCC(=O)O)C(=O)O; NMeNle = CCCC[C@H](NC)C(=O)O; dPip = O=C(O)[C@H]1CCCCN1; dAze = O=C(O)[C@H]1CCN1; Sar = CNCC(=O)O

Experiments:
[1] = target: T1, Human PD-L1/PD-1 (Homo sapiens, UniProt Q9NZQ7); assay: HTRF PD-1-Ig/PD-L1-His binding assay (human PD-L1); settings: cluster symbol; read-out: HTRF IC50 cluster
T1 construct: made in house; host or cells: HEK293T
T1 sequence (Q9NZQ7 with tags, fused parts or gaps): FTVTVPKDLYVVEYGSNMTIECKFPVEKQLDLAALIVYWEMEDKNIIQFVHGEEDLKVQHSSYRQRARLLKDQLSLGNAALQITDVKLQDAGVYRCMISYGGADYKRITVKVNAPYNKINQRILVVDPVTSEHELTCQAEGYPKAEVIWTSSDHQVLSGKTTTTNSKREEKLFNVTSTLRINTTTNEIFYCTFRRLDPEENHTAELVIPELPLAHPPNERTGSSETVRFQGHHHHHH
Procedure, shortened: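 Readout: time-resolved FRET between Eu cryptate-labeled anti-Ig (1 nM final) and APC-labeled anti-His (20 nM final) antibodies. These detect interaction of Fc-fused PD-1 with His-tagged human PD-L1 in dPBS containing 0.1% BSA and 0.05% Tween-20.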

[2] = target: T2, LK35.2-hPD-L1 cells / PE-labeled PD-1-Ig (Homo sapiens, UniProt Q9NZQ7); assay: LK35.2-hPD-L1 cell binding high-content screening assay; assay type: cell-based; settings: cell binding assay, cell line not given; cluster symbol; read-out: CBA IC50 cluster
T2 construct: expressed in transfected cells; host or cells: LK35.2 mouse B cell line
T2 sequence (Q9NZQ7 19-290): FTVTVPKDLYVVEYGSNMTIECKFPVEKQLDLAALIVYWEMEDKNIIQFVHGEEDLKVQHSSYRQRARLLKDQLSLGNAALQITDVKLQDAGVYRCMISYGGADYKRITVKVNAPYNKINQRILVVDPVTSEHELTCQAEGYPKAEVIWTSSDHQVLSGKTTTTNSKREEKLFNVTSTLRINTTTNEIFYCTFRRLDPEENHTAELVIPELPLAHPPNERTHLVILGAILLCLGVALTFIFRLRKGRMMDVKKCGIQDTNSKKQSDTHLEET
Procedure, shortened: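 Mouse LK35.2 B cells stably overexpressing human PD-L1 were cultured overnight in RPMI with 10% FCS, then given compound and PE-labeled human PD-1-Ig (1 nM final) for 1 h at 37 °C. After three dPBS washes, bound fluorescence was quantified by high-content imaging.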

Row | Compound | IC50 [1] [nM] | IC50 [2] [nM]
1 | CCCC[C@H]1C(=O)N2CCCC[C@@H]2C(=O)N[C@@H](CC(=O)O)C(=O)N[C@@H](C(C)C)C(=O)N(C)[C@@H](Cc2ccccc2)C(=O)N[C@@H](Cc2ccc(O)cc2)C(=O)N(C)CC(=O)N[C@@H](Cc2c[nH]c3ccccc23)C(=O)N[C@@H](Cc2ccc(O)cc2)C(=O)N[C@@H](CC(C)C)C(=O)N[C@H](C(=O)NCC(N)=O)CSCC(=O)N[C@@H](Cc2ccccc2)C(=O)N(C)[C@@H](Cc2ccccc2)C(=O)N1C [Example 3573] ({CH2CO}-F[NMeF][NMeNle][dPip]DV[NMeF]Y[Sar]WYLCG-NH2; thioether N-13) | 6.76 to 30.3 | 4.78 to 72.9
2 | CCCC[C@H]1C(=O)N2CCC[C@@H]2C(=O)N[C@@H](CC(=O)O)C(=O)N[C@@H](C(C)C)C(=O)N(C)[C@@H](Cc2ccccc2)C(=O)N[C@@H](Cc2ccc(O)cc2)C(=O)N2CCC[C@@H]2C(=O)N[C@@H](Cc2c[nH]c3ccccc23)C(=O)N[C@@H](Cc2ccc(O)cc2)C(=O)N[C@@H](CC(C)C)C(=O)N[C@H](C(=O)NCC(N)=O)CSCC(=O)N[C@@H](Cc2ccccc2)C(=O)N(C)[C@@H](Cc2ccccc2)C(=O)N1C [Example 3574] (HELM PEPTIDE1{[O=C(C[*:3])[*:2]].F.[meF].[CCCC[C@@H](C(=O)[*:2])N(C)[*:1]].[dP].D.V.[meF].Y.[dP].W.Y.L.C.G.[am]}$PEPTIDE1,PEPTIDE1,1:R3-14:R3$$$V2.0) | 6.76 to 30.3 | 0.158 to 4.71
3 | CCCC[C@H]1C(=O)N2C[C@H](O)C[C@@H]2C(=O)N[C@@H](CC(=O)O)C(=O)N[C@@H](C(C)C)C(=O)N(C)[C@@H](Cc2ccccc2)C(=O)N[C@@H](Cc2ccc(O)cc2)C(=O)N(C)CC(=O)N[C@@H](Cc2c[nH]c3ccccc23)C(=O)N[C@@H](Cc2ccc(O)cc2)C(=O)N[C@@H](CC(C)C)C(=O)N[C@H](C(=O)NCC(N)=O)CSCC(=O)N[C@@H](Cc2ccccc2)C(=O)N(C)[C@@H](Cc2ccccc2)C(=O)N1C [Example 3575] ({CH2CO}-F[NMeF][NMeNle][d(cisHyp)]DV[NMeF]Y[Sar]WYLCG-NH2; thioether N-13) | 0.385 to 6.74 | 0.158 to 4.71
4 | CCCC[C@H]1C(=O)N(C)CC(=O)N[C@@H](CC(=O)O)C(=O)N[C@@H](C(C)C)C(=O)N(C)[C@@H](Cc2ccccc2)C(=O)N[C@@H](Cc2ccc(O)cc2)C(=O)N2C[C@@H](O)C[C@@H]2C(=O)N[C@@H](Cc2c[nH]c3ccccc23)C(=O)N[C@@H](Cc2ccc(O)cc2)C(=O)N[C@@H](CC(C)C)C(=O)N[C@H](C(=O)NCC(N)=O)CSCC(=O)N[C@@H](Cc2ccccc2)C(=O)N(C)[C@@H](Cc2ccccc2)C(=O)N1C [Example 3576] ({CH2CO}-F[NMeF][NMeNle][Sar]DV[NMeF]Y[dHyp]WYLCG-NH2; thioether N-13) | 6.76 to 30.3 | 4.78 to 72.9
5 | CCCC[C@H]1C(=O)N(C)CC(=O)N[C@@H](CC(=O)O)C(=O)N[C@@H](C(C)C)C(=O)N(C)[C@@H](Cc2ccccc2)C(=O)N[C@@H](Cc2ccc(O)cc2)C(=O)N2CC[C@@H]2C(=O)N[C@@H](Cc2c[nH]c3ccccc23)C(=O)N[C@@H](Cc2ccc(O)cc2)C(=O)N[C@@H](CC(C)C)C(=O)N[C@H](C(=O)NCC(N)=O)CSCC(=O)N[C@@H](Cc2ccccc2)C(=O)N(C)[C@@H](Cc2ccccc2)C(=O)N1C [Example 3577] ({CH2CO}-F[NMeF][NMeNle][Sar]DV[NMeF]Y[dAze]WYLCG-NH2; thioether N-13) | 0.385 to 6.74 | 0.158 to 4.71
6 | CCCC[C@H]1C(=O)N(C)CC(=O)N[C@@H](CC(=O)O)C(=O)N[C@@H](C(C)C)C(=O)N(C)[C@@H](Cc2ccccc2)C(=O)N[C@@H](Cc2ccc(O)cc2)C(=O)N2C[C@H](C)C[C@@H]2C(=O)N[C@@H](Cc2c[nH]c3ccccc23)C(=O)N[C@@H](Cc2ccc(O)cc2)C(=O)N[C@@H](CC(C)C)C(=O)N[C@H](C(=O)NCC(N)=O)CSCC(=O)N[C@@H](Cc2ccccc2)C(=O)N(C)[C@@H](Cc2ccccc2)C(=O)N1C [Example 3578] ({CH2CO}-F[NMeF][NMeNle][Sar]DV[NMeF]Y[X1]WYLCG-NH2; thioether N-13) | 0.385 to 6.74 | 0.158 to 4.71
7 | CCCC[C@H]1C(=O)N(C)CC(=O)N[C@@H](CC(=O)O)C(=O)N[C@@H](C(C)C)C(=O)N(C)[C@@H](Cc2ccccc2)C(=O)N[C@@H](Cc2ccc(O)cc2)C(=O)N(C)CC(=O)N[C@@H](Cc2c[nH]c3ccccc23)C(=O)N[C@H](Cc2ccc(O)c(O)c2)C(=O)N[C@@H](CC(C)C)C(=O)N[C@H](C(=O)NCC(N)=O)CSCC(=O)N[C@@H](Cc2ccccc2)C(=O)N(C)[C@@H](Cc2ccccc2)C(=O)N1C [Example 3579] ({CH2CO}-F[NMeF][NMeNle][Sar]DV[NMeF]Y[Sar]W[dDopa]LCG-NH2; thioether N-13) | 6.76 to 30.3 | 0.158 to 4.71
8 | CCCC[C@H]1C(=O)N2C[C@H](C)C[C@@H]2C(=O)N[C@@H](CC(=O)O)C(=O)N[C@@H](C(C)C)C(=O)N(C)[C@@H](Cc2ccccc2)C(=O)N[C@@H](Cc2ccc(O)cc2)C(=O)N(C)CC(=O)N[C@@H](Cc2c[nH]c3ccccc23)C(=O)N[C@@H](Cc2ccc(O)cc2)C(=O)N[C@@H](CC(C)C)C(=O)N[C@H](C(=O)NCC(N)=O)CSCC(=O)N[C@@H](Cc2ccccc2)C(=O)N(C)[C@@H](Cc2ccccc2)C(=O)N1C [Example 3580] ({CH2CO}-F[NMeF][NMeNle][X1]DV[NMeF]Y[Sar]WYLCG-NH2; thioether N-13) | 0.385 to 6.74 | 0.158 to 4.71
9 | CCCC[C@H]1C(=O)N2CC[C@@H]2C(=O)N[C@@H](CC(=O)O)C(=O)N[C@@H](C(C)C)C(=O)N(C)[C@@H](Cc2ccccc2)C(=O)N[C@@H](Cc2ccc(O)cc2)C(=O)N(C)CC(=O)N[C@@H](Cc2c[nH]c3ccccc23)C(=O)N[C@@H](Cc2ccc(O)cc2)C(=O)N[C@@H](CC(C)C)C(=O)N[C@H](C(=O)NCC(N)=O)CSCC(=O)N[C@@H](Cc2ccccc2)C(=O)N(C)[C@@H](Cc2ccccc2)C(=O)N1C [Example 3582] ({CH2CO}-F[NMeF][NMeNle][dAze]DV[NMeF]Y[Sar]WYLCG-NH2; thioether N-13) | 6.76 to 30.3 | 4.78 to 72.9
10 | CCCC[C@H]1C(=O)N2C[C@@H](O)C[C@@H]2C(=O)N[C@@H](CC(=O)O)C(=O)N[C@@H](C(C)C)C(=O)N(C)[C@@H](Cc2ccccc2)C(=O)N[C@@H](Cc2ccc(O)cc2)C(=O)N(C)CC(=O)N[C@@H](Cc2c[nH]c3ccccc23)C(=O)N[C@@H](Cc2ccc(O)cc2)C(=O)N[C@@H](CC(C)C)C(=O)N[C@H](C(=O)NCC(N)=O)CSCC(=O)N[C@@H](Cc2ccccc2)C(=O)N(C)[C@@H](Cc2ccccc2)C(=O)N1C [Example 3588] ({CH2CO}-F[NMeF][NMeNle][dHyp]DV[NMeF]Y[Sar]WYLCG-NH2; thioether N-13) | 6.76 to 30.3 | 0.158 to 4.71
11 | CCCC[C@H]1C(=O)N2C[C@H](O)C[C@@H]2C(=O)N[C@@H](CC(N)=O)C(=O)N[C@@H](C(C)C)C(=O)N(C)[C@@H](Cc2ccccc2)C(=O)N[C@@H](Cc2ccc(O)cc2)C(=O)N2CCCC[C@@H]2C(=O)N[C@@H](Cc2c[nH]c3ccccc23)C(=O)N[C@@H](Cc2ccc(O)cc2)C(=O)N[C@@H](CCCCN)C(=O)N[C@H](C(=O)NCC(N)=O)CSCC(=O)N[C@@H](Cc2cc(F)c(F)c(F)c2)C(=O)N(C)[C@@H](Cc2ccccc2)C(=O)N1C [Example 3589] ({CH2CO}-[Phe(3,4,5-F3)][NMeF][NMeNle][d(cisHyp)]NV[NMeF]Y[dPip]WYKCG-NH2; thioether N-13) | 0.385 to 6.74 | 0.158 to 4.71
12 | CCCC[C@H]1C(=O)N2C[C@@H](O)C[C@@H]2C(=O)N[C@@H](CC(N)=O)C(=O)N[C@@H](C(C)C)C(=O)N(C)[C@@H](Cc2ccccc2)C(=O)N[C@@H](Cc2ccc(O)cc2)C(=O)N2CCCC[C@@H]2C(=O)N[C@@H](Cc2c[nH]c3ccccc23)C(=O)N[C@@H](Cc2ccc(O)cc2)C(=O)N[C@@H](CCCCN)C(=O)N[C@H](C(=O)NCC(N)=O)CSCC(=O)N[C@@H](Cc2cc(F)c(F)c(F)c2)C(=O)N(C)[C@@H](Cc2ccccc2)C(=O)N1C [Example 3591] ({CH2CO}-[Phe(3,4,5-F3)][NMeF][NMeNle][dHyp]NV[NMeF]Y[dPip]WYKCG-NH2; thioether N-13) | 0.385 to 6.74 | 0.158 to 4.71
13 | CCCC[C@H]1C(=O)N(C)[C@H](CCC(=O)O)C(=O)N[C@@H](CC(N)=O)C(=O)N[C@@H](C(C)C)C(=O)N(C)[C@@H](Cc2ccccc2)C(=O)N[C@@H](Cc2ccc(O)cc2)C(=O)N2CCCC[C@@H]2C(=O)N[C@@H](Cc2c[nH]c3ccccc23)C(=O)N[C@@H](Cc2ccc(O)cc2)C(=O)N[C@@H](CCCCN)C(=O)N[C@H](C(=O)NCC(N)=O)CSCC(=O)N[C@@H](Cc2ccccc2)C(=O)N(C)[C@@H](Cc2ccccc2)C(=O)N1C [Example 3593] ({CH2CO}-F[NMeF][NMeNle][dNMeE]NV[NMeF]Y[dPip]WYKCG-NH2; thioether N-13) | 0.385 to 6.74 | 0.158 to 4.71
14 | CCCC[C@H]1C(=O)N2C[C@H](O)C[C@@H]2C(=O)N[C@@H](CC(N)=O)C(=O)N[C@@H](C(C)C)C(=O)N(C)[C@@H](Cc2ccccc2)C(=O)N[C@@H](Cc2ccc(O)cc2)C(=O)N(C)[C@H](CCC(=O)O)C(=O)N[C@@H](Cc2c[nH]c3ccccc23)C(=O)N[C@@H](Cc2ccc(O)cc2)C(=O)N[C@@H](CCCCN)C(=O)N[C@H](C(=O)NCC(N)=O)CSCC(=O)N[C@@H](Cc2ccccc2)C(=O)N(C)[C@@H](Cc2ccccc2)C(=O)N1C [Example 3594] ({CH2CO}-F[NMeF][NMeNle][d(cisHyp)]NV[NMeF]Y[dNMeE]WYKCG-NH2; thioether N-13) | 6.76 to 30.3 | 0.158 to 4.71
